# Data as given in patent publication US20110105515A1, “TARGETING THE ONCOPROTEIN NUCLEOPHOSMIN” (President and Fellows of Harvard College, priority 2007, published 2011).
# “Also recorded” adds a separate entry of the source.
# Experiments:
# exportin-1 (XPO1) = target: T1, exportin-1 (XPO1) (Homo sapiens, UniProt O14980); test: Competitive binding affinity-isolation with probe 5 in T-47D lysates, exportin-1; conditions: 10 μM probe 5, 100 μM inhibitor
# T1 construct: endogenous in cells; host or cells: T-47D lysate
# From the text: (§1) The supernatant was discarded.
# (§2) See above for solution preparation.
# peroxiredoxin 1 (PRX1) = target: T2, peroxiredoxin 1 (PRX1) (Homo sapiens, UniProt Q06830); test: Competitive binding affinity-isolation with probe 5 in T-47D lysates, peroxiredoxin 1; conditions: 10 μM probe 5, 100 μM inhibitor
# T2 construct: endogenous in cells; host or cells: T-47D lysate
# From the text: as §1, §2
# T-47D cells = test: Antiproliferative assay (CellTiter-Blue), T-47D cells; type: cell-based, human; conditions: 72-h incubation
# Protocol: G. Antiproliferative Assays. […] The cell suspension was diluted to 1.0×10^5 cells/mL. A multichannel pipette was used to load the wells of a 96-well plate with 100 μL per well of the diluted cell suspension. […] The following day, 100-μg portions of the nitrone samples were removed from the freezer, thawed, and dissolved in filter-sterilized DMSO to a concentration of 5 mM. A 6.5-μL aliquot of the nitrone solution was dissolved in 643.5 μL of medium to achieve a working concentration of 50 μM. Serial dilutions were employed to generate a range of different concentrations for analysis. Finally, 100-μL aliquots of this diluted nitrone solution were added to the wells containing adhered cells, resulting in final assay concentrations of up to 25 μM. The treated cells were incubated for 72 h at 37° C. (5% CO2). To each well was added 20 μL of CellTiter-Blue reagent, and the samples were returned to the incubator. Fluorescence (560 nm excitation/590 nm emission) was recorded on a 96-well plate reader following a 4.0-h incubation period (37° C., 5% CO2). Percent growth inhibition was calculated for each well, based upon the following formula: Percent growth inhibition=100×(S−B0)/(Bt−B0); where S is the sample reading, Bt is the average reading for a vehicle-treated population of cells at the completion of the assay, and B0 is the average reading for an untreated population of cells at the beginning of the assay. Each analogue was run a minimum of eight times, over a period of at least two weeks. For each compound, 14 separate concentrations were used in the assay, ranging from 25 μM to 8 nM. The average inhibition at each concentration was plotted against concentration, and a curve fit was generated. […] Final GI50 values reflect the concentrations at which the resulting curves pass through 50 percent inhibition.
# The cell suspension was diluted to 1.0×10^5 cells/mL. A multichannel pipette was used to charge the wells of a 96-well plate with 100 μL per well of the diluted cell suspension.
# The following day, a 6.5-μL aliquot of nitrone solution, at 5 mM in DMSO, was diluted in 643.5 μL of medium to achieve a working concentration of 50 μM. Serial dilutions were employed to generate a range of different concentrations for analysis. Finally, 100-μL aliquots of the diluted nitrone solutions were added to the wells containing adhered cells, resulting in final assay concentrations of up to 25 μM.
# The treated cells were incubated for 72 h at 37° C. (5% CO2). To each well was added 20 μL of CellTiter-Blue reagent, and the samples were returned to the incubator. Fluorescence (560 nm excitation/590 nm emission) was recorded on a 96-well plate reader following a 4.0 h incubation period (37° C., 5% CO2).
# Percent growth inhibition was calculated for each well, based upon the following formula:
# Percent growth inhibition=100×(S−B0)/(Bt−B0)
# where S is the sample reading, Bt is the average reading for a vehicle-treated population of cells at the completion of the assay, and B0 is the average reading for an untreated population of cells at the beginning of the assay.
# nucleophosmin [1] = target: T3, nucleophosmin (Homo sapiens, UniProt P06748); test: Competitive binding affinity-isolation with probe 5 in T-47D lysates, nucleophosmin; conditions: for inhibition of binding of nucleophosmin to probe 5 by analogues (FIG. 4): T-47D nuclear-enriched lysate
# [2] = test system: MALME-3M and MALME-3 cells; test: Selectivity assay, malignant melanoma MALME-3M versus fibroblast MALME-3; type: cell-based; conditions: MALME-3M versus MALME-3
# Protocol: […]. A cell line from a healthy fibroblast from the same patient has also been deposited with the American Type Cell Culture Corporation (ATCC). Fresh stockes of both MALME-3M and MALME-3 from ATCC. Avrainvillamide was test against the two cells lines at the same time, taking all possible precautions to ensure that both sets of samples were treated identically. […] As a measure of cytotoxicity and antiproliferative activity, we calculated both LC50 and LC25 (as an estimate of GI50).
# The 9.7-fold selectivity at 25 percent cell death is representative of at least a modest degree of selectivity. For comparison, cytochalsine B and geldanamycin were analyzed in identical experiments. Cytochalasine B is a non-selective cytotoxic agent for which a selectivity factor of 0.2 at 25 percent cell death was observed. Geldanamycin is known to be a potent, selective inhibitor of tumor cell growth for which a selectivity factor of >100 at 25 percent cell death was observed.
# nucleophosmin [3] = target: T3, nucleophosmin; test: Titration of probe 5-nucleophosmin binding in T-47D whole cell lysate; parameters: endogenous in cells; host or cells: T-47D (live cells, whole-cell lysate, nuclear-enriched lysate); conditions: whole-cell lysates of T-47D cells
# Protocol: as §1
# A 1-mL aliquot of T-47D whole cell lysate was thawed at 4° C. and diluted with 4 mL wash buffer, to afford a working lysate of 1.5 mg/mL total protein.
# [4] = target: NPM1.3 (nucleophosmin isoform) (Homo sapiens, UniProt P06748, C275A); test: Affinity-isolation of NPM1.3 cysteine to alanine mutants expressed in COS-7 cells with probe 5; conditions: 1 μM probe 5, COS-7 cell lysates
# [5] = test system: NPM1.3 (nucleophosmin isoform); test: as above; conditions: 1 μM probe 5, COS-7 cell lysates
# nucleophosmin [6] = target: T3, nucleophosmin; test: Affinity-isolation from incubations with live T-47D cells, Western-blot detection of nucleophosmin; type: binding; parameters: endogenous in cells; host or cells: T-47D (live cells, whole-cell lysate, nuclear-enriched lysate); conditions: 3 μM 5 versus 9 μM 3, 90 min
# Protocol: To identify potential binding proteins, populations of healthy (adherent) T-47D cells were treated with the newly synthesized biotin conjugate 5 or the structurally simpler biotin-containing probe 3, previously studied. As a control, a separate population of cells was treated with the biotin derivative 7, which lacks the unsaturated nitrone function. The treated cells were incubated with probe or control for 90 min at 37° C., then were harvested, washed and lysed. The individual lysates were exposed to an agarose resin to remove nonspecific binding proteins. After centrifugation, the supernatants were then exposed to a streptavidin-agarose resin. This resin was collected by centrifugation and washed. Bound proteins were released by heat-denaturation, separated by SDS-PAGE, and analyzed by LC-MS/MS and Western-blot.
# The lysates were transferred to fresh 1.7-mL centrifuge tubes. Each individual sample lysate was treated with 50 μL of washed, well-suspended, two-fold diluted Sepharose resin. […] The supernatant was transferred to a clean 1.7-mL centrifuge tube.
# as §1
# proteins of T-47D cells = test: Affinity-isolation from T-47D cells, LC-MS/MS analysis of proteins; conditions: narrower region of the gel; equal concentrations
# LNCaP cells = test: Antiproliferative assay (CellTiter-Blue), LNCaP cells; type: cell-based, human; conditions: 72-h incubation
# Protocol: G. Antiproliferative Assays. […] The cell suspension was diluted to 1.0×10^5 cells/mL. A multichannel pipette was used to load the wells of a 96-well plate with 100 μL per well of the diluted cell suspension. […] The following day, 100-μg portions of the nitrone samples were removed from the freezer, thawed, and dissolved in filter-sterilized DMSO to a concentration of 5 mM. A 6.5-μL aliquot of the nitrone solution was dissolved in 643.5 μL of medium to achieve a working concentration of 50 μM. Serial dilutions were employed to generate a range of different concentrations for analysis. […] Fluorescence (560 nm excitation/590 nm emission) was recorded on a 96-well plate reader following a 4.0-h incubation period (37° C., 5% CO2). Percent growth inhibition was calculated for each well, based upon the following formula: Percent growth inhibition=100×(S−B0)/(Bt−B0); where S is the sample reading, Bt is the average reading for a vehicle-treated population of cells at the completion of the assay, and B0 is the average reading for an untreated population of cells at the beginning of the assay. […]
# The treated cells were incubated for 72 h at 37° C. […] Fluorescence (560 nm excitation/590 nm emission) was recorded on a 96-well plate reader following a 4.0 h incubation period (37° C., 5% CO2).
# Percent growth inhibition was calculated for each well, based upon the following formula: […]
# nucleophosmin [7] = target: T3, nucleophosmin; test: Affinity-isolation following co-incubation with iodoacetamide; type: binding; parameters: endogenous in cells; host or cells: T-47D (live cells, whole-cell lysate, nuclear-enriched lysate); conditions: 10 μM probe 5, 10 mM iodoacetamide; whole cell lysate
# Protocol: Identical affinity-isolation experiments to those described in the previous section were performed, except that iodoacetamide (8 μL of a freshly prepared 500 mM solution in DMSO) was added to one sample: […]
compound,measurement,setting,value
"CC1(C)C=Cc2c(ccc3c2[N+]([O-])=C2C3=C[C@@]34NC(=O)[C@]5(CCCN5C3=O)C[C@H]4C2(C)C)O1 (single isomer, unassigned; ent-1) [ent-1, (−)-avrainvillamide]",blocking of the binding of probe 5 to exportin-1 (XPO1),exportin-1 (XPO1),capable of blocking
same,blocking of the binding of probe 5 to peroxiredoxin 1 (PRX1),peroxiredoxin 1 (PRX1),capable of blocking
same,fold less potent than (+)-1 as inhibitor of T-47D cell growth,T-47D cells,~3 fold
same,binding of nucleophosmin to probe 5 in the presence of a 10-fold higher concentration of competitor,"nucleophosmin [1]; 10 μM probe 5, 100 μM competitor, nuclear-enriched and whole-cell T-47D lysates",not diminished
same,concentration required for inhibition of probe 5-nucleophosmin binding,nucleophosmin [1]; T-47D lysate,500 µM
same,fold higher concentration versus 1 required for inhibition of probe 5-nucleophosmin binding,nucleophosmin [1]; T-47D lysate,~5 fold
"C=C1[C@@H](C)[C@H]2[C@H](Cc3ccccc3)NC(=O)[C@]23OC(=O)/C=C/[C@H](O)CCC[C@@H](C)C/C=C/[C@H]3[C@@H]1O [Cytochalasine B, reference compound]","selectivity factor, melanoma cells relative to fibroblast control (LC25, 25 percent cell death, estimate of GI50)",[2],0.2
"COC1=C2C[C@@H](C)C[C@H](OC)[C@H](O)[C@@H](C)/C=C(\C)[C@H](OC(N)=O)[C@@H](OC)/C=C\C=C(/C)C(=O)NC(=CC1=O)C2=O [Geldanamycin, reference compound]","selectivity factor, melanoma cells relative to fibroblast control (LC25, 25 percent cell death, estimate of GI50)",[2],> 100
CN(C)c1cccc2c(S(=O)(=O)NCCCCCCCCCCOc3ccc4c(c3)[N+]([O-])=C3C4=C[C@@]45NC(=O)C6(CCCN6C4=O)CC5C3(C)C)cccc12 (some centres unmarked) [compound 4],"inhibition of the growth of T-47D cells (antiproliferative potency, in words)",T-47D cells,potencies similar to the natural product
CC1(C/C=C/CCCCCCCCOC(=O)CCCC[C@@H]2SC[C@@H]3NC(=O)N[C@@H]32)C=Cc2c(ccc3c2[N+]([O-])=C2C3=C[C@@]34NC(=O)C5(CCCN5C3=O)CC4C2(C)C)O1 (some centres unmarked) [compound 5],concentration of probe sufficient to afford detectable levels of nucleophosmin,nucleophosmin [3],100 to 500 nM
same,effect of deletion of cys275 on affinity-isolation of NPM1.3,[4],greatly reduced
same,effect of deletion of cys21 or cys104 on affinity-isolation of NPM1.3,[5],little effect
same,affinity-isolation of nucleophosmin by biotinylated probe (Western-blot),nucleophosmin [6],more effectively bound nucleophosmin; also recorded: selectively bind
same,"inhibition of the growth of T-47D cells (antiproliferative potency, in words)",T-47D cells,potencies similar to the natural product
same,"inhibition of the growth of T-47D cells (antiproliferative potency, in words)",T-47D cells; listed as biotin-avrainvillamide conjugate,nearly equipotent to (+)-avrainvillamide
same,detection of nucleophosmin by LC-MS/MS after affinity isolation,proteins of T-47D cells,detected
same,"inhibition of the growth of LNCaP cells (antiproliferative potency, in words)",LNCaP cells,somewhat less potent than the dansyl conjugate (4)
"COCCCCCCCCCCNS(=O)(=O)c1cccc2c(N(C)C)cccc12 [compound 6, reference compound]","inhibition of the growth of T-47D cells (antiproliferative potency, in words)",T-47D cells,inactive
same,"inhibition of the growth of LNCaP cells (antiproliferative potency, in words)",LNCaP cells,inactive
CC1(C)C2=[N+]([O-])c3cc(-c4ccccc4)ccc3C2=C[C@@]23NC(=O)C4(CCCN4C2=O)CC13 (some centres unmarked) [compound 8],"inhibition of the growth of T-47D cells (antiproliferative potency, in words)",T-47D cells,nearly as potent as avrainvillamide
same,inhibition of binding of nucleophosmin to probe 5 by analogues (FIG. 4),nucleophosmin [1],inhibited essentially equivalently
CC1(C)C2=[N+]([O-])c3ccc(-c4ccccc4)cc3C2=C[C@@]23NC(=O)C4(CCCN4C2=O)CC13 (some centres unmarked) [compound 9],fold less potent than (+)-1 as inhibitor of T-47D cell growth,T-47D cells,3 fold
same,inhibition of binding of nucleophosmin to probe 5 by analogues (FIG. 4),nucleophosmin [1],only partially inhibited
CC1(C)C2=[N+]([O-])c3cc(C#Cc4ccccc4)ccc3C2=C[C@@]23NC(=O)C4(CCCN4C2=O)CC13 (some centres unmarked) [compound 10],inhibition of binding of nucleophosmin to probe 5 by analogues (FIG. 4),nucleophosmin [1],least effectively inhibited
CC1(C)C2=[N+]([O-])c3c(cccc3-c3ccccc3)C2=C[C@@]23NC(=O)C4(CCCN4C2=O)CC13 (some centres unmarked) [compound 11],inhibition of binding of nucleophosmin to probe 5 by analogues (FIG. 4),nucleophosmin [1],least effectively inhibited
NC(=O)CI [iodoacetamide],binding of nucleophosmin to probe 5 in the presence of a 1000-fold excess,nucleophosmin [7],substantially reduced
